# Test results: PubChem BioAssay (NCI)
# Where “and” joins values, the source holds several entries; their conditions need not be identical. Equal entries are not always repeated.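 The compound was tested at five concentrations on cells cultured in 96-well plates, with a 48-hour exposure period. The concentration for full growth arrest is given as TGI.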
# Legend:
# Test in all cases: NCI-60 cell line screen, 48 h
# [1] = tested on: HCC-2998 colon
# [2] = tested on: MDA-N
# [3] = tested on: NCI-H226 lung
# [4] = tested on: NCI-H522 lung
# [5] = tested on: NCI/ADR-RES ovarian
# [6] = tested on: RPMI-8226 leukemia
# [7] = tested on: SF-539 CNS
# [8] = tested on: SK-MEL-5 melanoma
# [9] = tested on: TK-10 renal
# [10] = tested on: UACC-257 melanoma
Compound,TGI [1],TGI [2] [µM],TGI [3],TGI [4],TGI [5] [µM],TGI [6],TGI [7] [µM],TGI [8],TGI [9],TGI [10]
COC(=O)[C@]12CC[C@H]3CN(C(=O)OCc4ccccc4)[C@H]([C@H]31)[C@H](c1ccco1)N2S(=O)(=O)c1ccc(C)cc1,34.5 µM,50.4,58.7 µM,45.7 µM,61.2,35.9 µM,> 100,33.3 µM,90.2 µM,50.9 µM
COC(=O)c1c2c(cc3c1CC1(C3)Cc3cc4c(c(C(=O)OC)c3C1)CCCC4)CCCC2,> 100 µM,> 100,> 100 µM,> 100 µM,> 100,> 100 µM,> 100,> 100 µM,> 100 µM,> 100 µM
O=C1C[C@H](Sc2ccccc2)C2(OCCO2)[C@@H](Sc2ccccc2)C1,6.42 µM,6.83,6.03 µM,1.81 µM,4.92,,4.05,4.23 µM,6.96 µM,4.51 µM
C=CC[C@]12C[C@@H](C(=O)OC)N(C(=O)OC)[C@H]1N(S(=O)(=O)c1ccccc1)c1ccccc12,> 100 µM,> 100,> 100 µM,> 100 µM,> 100,> 100 µM,> 100,> 100 µM,> 100 µM,77.3 µM
Nc1c(-c2cccc3ccccc23)c2ccc([N+](=O)[O-])cc2c(=O)n1-c1nc2ccccc2s1,> 100 µM,> 31.6,16.3 µM,6.86 µM,10.5,> 49.6 µM,14.8,37.7 µM,> 100 µM,> 80.8 µM
COc1cc(NS(C)(=O)=O)ccc1N1Cc2cnc3ccc4[nH]c(C)cc1c4c23,> 100 µM,47.7,> 100 µM,80.7 µM,> 100,88.2 µM,,> 100 µM,> 100 µM,> 100 µM
COc1ccc(C2(CC(C)O)SCCCS2)cc1 (configuration not stated),> 100 µM,> 100,> 100 µM,> 100 µM,> 100,> 100 µM,> 100,> 100 µM,> 100 µM,> 100 µM
C=CCO/N=C/c1cc(NC(=S)c2ccoc2C)ccc1Cl,24 µM,32.2,41.3 µM,23.7 µM,29,12.1 µM,44.6,27.6 µM,42.2 µM,34 µM
C/C=C/C=C/c1nc(C#N)c(N)o1,> 100 µM,> 100,> 100 µM,> 100 µM,> 100,> 100 µM,> 100,,> 100 µM,> 100 µM
CCCCC1c2c([nH]c3ccccc23)C2C(=O)N(c3ccc(OC)cc3)C(=O)C2C1CCC (configuration not stated),> 10 µM,7.45,> 10 µM,> 10 µM,5.68,8.99 µM,5.11,> 10 µM,> 10 µM,9.62 µM
CCN(CC)CCOc1ccc(N2C(=O)c3cc(OC)c(OC)cc3C2=O)cc1,> 100 µM,> 100,> 100 µM,> 100 µM,> 100,> 100 µM,> 100,> 100 µM,> 100 µM,> 100 µM
COc1ccc2nc3cc(Cl)ccc3c(NCCCNCCCNc3c4ccc(Cl)cc4nc4ccc(OC)cc34)c2c1,0.147 µM,0.173,0.177 µM,0.114 µM,> 22.8,27.7 µM,0.192,,0.588 µM,1.76 µM
CCN(C(=S)N[C@@H](Cc1ccccc1)C(=O)N[C@@H](CC(C)C)C(=O)OC)c1ccccc1,> 100 µM,> 100,> 100 µM,> 100 µM,> 100,> 100 µM,> 100,> 100 µM,> 100 µM,> 100 µM
CSc1c(C#N)c(N)n2c1C(=O)N(c1ccccc1)C2=S,> 100 µM,> 100,> 100 µM,57.7 µM,> 100,,> 100,> 100 µM,> 100 µM,> 100 µM
CC[C@H]1CN2CCc3cc(OC)c(OC)cc3[C@@H]2C[C@@H]1C[C@H]1NCCc2cc(OC)c(OC)cc21,0.0943 µM and 0.0555 µM,0.0589,0.164 µM and 0.476 µM,0.0392 µM and 0.0356 µM,0.502,0.151 µM and 0.0175 µM,,0.0701 µM and 0.0855 µM,0.0784 µM and 0.309 µM,0.361 µM and 0.529 µM
N#C/C(=C\c1cc(Br)c(O)c(Br)c1)c1cccnc1,> 100 µM,> 100,91.4 µM,> 100 µM,59.1,86.3 µM,71.5,,87.2 µM,73.5 µM
Cc1ccccc1C(O)(c1nccn1C)c1nccn1C,> 100 µM,> 100,> 100 µM,> 100 µM,> 100,,> 100,> 100 µM,> 100 µM,> 100 µM
